The source of these data is US20230131899A1, “INHIBITORS OF MICROBIALLY INDUCED AMYLOID” (Axial Therapeutics, Inc., priority 2020, published 2023).

For the test, the target named is T1, human α-synuclein (Homo sapiens, UniProt P37840).
T1 construct: the full-length gene for untagged human α-synuclein was inserted; made in house; host or cells: E. coli BL21(DE3), plasmid derived from pT7 or pET11a
Put plainly: Cell-free Thioflavin T assay of α-synuclein aggregation (αSyn ThT Assay). In kind it is biochemical. Particulars: αSyn 50 μM, compounds at 100 μM. An outline of the steps: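 Inhibition is reported as 100% minus background-corrected ThT signal relative to vehicle wells, taken at 36, 47, 48 or 72 h or the last read. Reactions held 50 μM recombinant α-synuclein, 20-100 μM compound, 20-40 μM ThT and 1% DMSO. Incubation was at 37° C., shaken, with a glass bead.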

The mark [1] stands for this setting: mean % inhibition of αSyn aggregation relative to DMSO control, read-out: αSyn ThT Assay % Inhibition.
Setting [2] is: class symbol, read-out: αSyn ThT Assay % Inhibition (activity range).

Structures are written as SMILES. Where two headings read alike, the source gives them in different places.

For the compound `O=C(O)C1CN(CCCCO)S(=O)(=O)c2c(-c3cccc(C(F)(F)F)c3)c(Cc3cccc4ccccc34)c(NC3CCCC3)c(=O)n21` (centres unmarked) [Compound 121, 7-(cyclopentylamino)-2-(4-hydroxybutyl)-8-(naphthalen-1-ylmethyl)-6-oxo-9-(3-(trifluoromethyl)phenyl)-3,4-dihydro-2H,6H-pyrido[1,2-e][1,2,5]thiadiazine-4-carboxylic acid 1,1-dioxide], the inhibition (as a rule, the change of the read-out against control, counted positive when it falls) at 100 µM was 27% under setting [1] and 11 to 30% under setting [2].
Take `O=C(O)C1C[S+]([O-])c2c(-c3cccc(C(F)(F)F)c3)c(Cc3cccc4ccccc34)cc(=O)n21` (racemic) [Compound 027b, 7-(naphthalen-1-ylmethyl)-5-oxo-8-(3-(trifluoromethyl)phenyl)-2,3-dihydro-5H-thiazolo[3,2-a]pyridine-3-carboxylic acid 1-oxide]: the inhibition at 100 µM was 4% under setting [1] and -10 to 10% under setting [2].
For the compound `O=C(O)C1CSc2c(-c3cccc(C(F)(F)F)c3)c(Cc3cccc4ccccc34)cc(=O)n21` (racemic) [Compound 011, 7-(naphthalen-1-ylmethyl)-5-oxo-8-(3-(trifluoromethyl)phenyl)-2,3-dihydro-5H-thiazolo[3,2-a]pyridine-3-carboxylic acid], the inhibition at 100 µM runs as follows: under setting [1], 56%; under setting [2], 31 to 60%.
For `C=CCCN1CC(C(=O)O)n2c(c(-c3cccc(C(F)(F)F)c3)c(Cc3cccc4ccccc34)cc2=O)S1(=O)=O` (centres unmarked) [Compound 024, 2-(but-3-en-1-yl)-8-(naphthalen-1-ylmethyl)-6-oxo-9-(3-(trifluoromethyl)phenyl)-3,4-dihydro-2H,6H-pyrido[1,2-e][1,2,5]thiadiazine-4-carboxylic acid 1,1-dioxide], in that order: 69% and over 60%.
For `O=C(O)C1CSc2c(-c3cccc(C(F)(F)F)c3)c(Cc3cccc4ccccc34)nc(=O)n21` (centres unmarked) [Compound 022, 7-(naphthalen-1-ylmethyl)-5-oxo-8-(3-(trifluoromethyl)phenyl)-2,3-dihydro-5H-thiazolo[3,2-c]pyrimidine-3-carboxylic acid], in that order: 49% and 31 to 60%.
For `CCCN1CC(C(=O)O)n2c(c(-c3cccc(C(F)(F)F)c3)c(Cc3cccc4ccccc34)c(NC3CCCC3)c2=O)S1(=O)=O` (centres unmarked) [Compound 126, 7-(cyclopentylamino)-8-(naphthalen-1-ylmethyl)-6-oxo-2-propyl-9-(3-(trifluoromethyl)phenyl)-3,4-dihydro-2H,6H-pyrido[1,2-e][1,2,5]thiadiazine-4-carboxylic acid 1,1-dioxide] the same measures were 32% and 31 to 60%.
On to `Nc1c(Cc2cccc3ccccc23)c(-c2cccc(C(F)(F)F)c2)c2n(c1=O)C(C(=O)O)CS2` (racemic) [Compound 020, 6-amino-7-(naphthalen-1-ylmethyl)-5-oxo-8-(3-(trifluoromethyl)phenyl)-2,3-dihydro-5H-thiazolo[3,2-a]pyridine-3-carboxylic acid], for which the inhibition at 100 µM is 53% under setting [1] and 31 to 60% under setting [2].
